Patent publication US20240309014A1, “MACROCYCLIC COMPOUNDS AND USES THEREOF” (President and Fellows of Harvard College, priority 2017, published 2024)

What was measured:
[1] = tested on: Tenascin-C and EDA-fibronectin; assay: Effects on Tenascin-C and EDA-fibronectin in the FaDu subcutaneous model (FIG. 15); type: in vivo, nude mice; conditions: Compound (1) 180 μg/kg + cetuximab 10 mg/kg on Day 1, tumors five days after, vs control tumors
Protocol: A human squamous cell carcinoma of the head and neck (SCCHN) cell line FaDu, which had been cultured in an RPMI-1640 medium containing 10% FBS, and penicillin-streptomycin (culture medium), was adjusted to a concentration of 5×10^7 cells/mL with culture medium to prepare a cell suspension. The cell suspension was inoculated in a volume of 100 μL into a subcutaneous part of a right flank of nude mice, 6 weeks of ages (CAnN.Cg-Foxnlnu/CrlCrlj, female, Charles River Laboratories Japan, Inc.). Ten days after cell inoculation, the mice were grouped such that averages of the tumor volumes were substantially equal among the groups. The experiment was conducted on groups each consisting of 5 mice. Compound (1) was dissolved in DMSO and a solution was stored in the freezer before use. […] Five days after the single administration, tumor samples were collected and fixed with IHC Zinc Fixative (BD Pharmingen) at 4° C. for 24 hr. Paraffin-embedded tissues were sectioned (3 μm), mounted on positively charged slides, and air-dried. Sections were deparaffinized, conditioned and the antigens were retrieved using microwave with 1 mM EDTA at pH 6.0 for Tenascin-C. For EDA-fibronectin, the antigens retrieval procedure was not necessary. […]

[2] = tested on: human bladder carcinoma cell line RT4; assay: Bladder carcinoma cell line growth inhibition assay, RT4; type: cell-based; conditions: 72 h, 3 days incubation, CellTiter-Glo 2.0
Protocol: In this assay, the growth inhibitory activity of Compound (1) in human bladder carcinoma cell lines RT4, RT112/84, and UM-UC-3 was measured. RT4 and RT112/84 cells were maintained in a RPMI-1640 (FUJIFILM Wako Pure Chemical Corporation, 189-02025) medium containing 10% fetal bovine serum (FBS: SIGMA Life Science, 172012-500ML), and penicillin and streptomycin (FUJIFILM Wako Pure Chemical Corporation, 168-23191) in a 5% CO2 incubator (37° C.). UM-UC-3 cells were maintained in an E-MEM (FUJIFILM Wako Pure Chemical Corporation, 051-07615) medium containing 10% FBS, 1 mM Sodium Pyruvate (FUJIFILM Wako Pure Chemical Corporation, 190-14881), and penicillin and streptomycin in a 5% CO2 incubator (37° C.). To each well of a 96 well plate (Coming, 3904), 90 μL of each cell suspension adjusted to a concentration of 5.55×10^3 cells/mL (RT4 or UM-UC-3) or 3.33×10^4 cells/mL (RT112/84) with the culture medium was added, and the cells were incubated overnight in a 5% CO2 incubator (37° C.). On the next day, 10 μL of Compound (1) in three-fold dilution series suspended in the culture medium was added to each well, and the resultant was incubated for 3 days in a 5% CO2incubator (37° C.). Then, cell viability was determined by CellTiter-Glo® 2.0 Assay (Promega Corporation, G9243) with ARVO-X4 Multimode Plate Reader (Perkin-Elmer, Wellesley, MA). […]

[3] = tested on: CD31-positive vessel in FaDu tumor; assay: Effect on CD31-positive vessel in the FaDu subcutaneous model (FIG. 13); type: in vivo, nude mice; conditions: single i.v. administration at 20, 60, and 180 μg/kg, five days after
Protocol: A human squamous cell carcinoma of the head and neck (SCCHN) cell line FaDu, which had been cultured in an RPMI-1640 medium containing 10% FBS, and penicillin-streptomycin (culture medium), was adjusted to a concentration of 5×10^7 cells/mL with culture medium to prepare a cell suspension. The cell suspension was inoculated in a volume of 100 μL into a subcutaneous part of a right flank of nude mice, 6 weeks of ages (CAnN.Cg-Foxnlnu/CrlCrlj, female, Charles River Laboratories Japan, Inc.). Ten days after cell inoculation, the mice were grouped such that averages of the tumor volumes were substantially equal among the groups. The experiment was conducted on groups each consisting of 6 mice. Each test compound was dissolved in DMSO and a solution was stored in the freezer before use. Immediately before the administration, the stock solution was diluted with saline. […] The number of blood vessels in the whole tumor was quantified by counting the CD31-positive objects using inform 2 software (PerkinElmer Inc.) Area of the tumor region was measured by assessing the hematoxylin-staining area using inform 2 software (PerkinElmer Inc.) The number of blood vessels was normalized by the area of the tumor region. […] The ratios of blood vessel number in the test compound-dosing groups compared to non-treat group were calculated with the below formula: […]

C=C1C[C@@H]2CC[C@@]34C[C@H]5O[C@H]6[C@@H](O3)[C@H]3O[C@H](CC[C@@H]3O[C@H]6C5O4)CC(=O)O[C@@H]3[C@@H](C)[C@@H]4O[C@@H]5C[C@]6(C[C@@H]7O[C@]8(C[C@H](C)[C@@H]9O[C@H](CN)[C@H](O)C[C@@H]9O8)C[C@H](C)[C@@H]7O6)O[C@@H]5C[C@@H]4O[C@H]3C[C@H]3O[C@@H](CC[C@@H]1O2)C[C@@H](C)C3=C (stereo in doubt) [Compound (1)]
expression levels of Tenascin-C and ED-A fibronectin [1]: reduced
IC50 [2]: 0.11 nM
tumor blood vessel number [3]: increased the tumor blood vessel number
